Measurements taken from patent publication US6632809B2, “Gyrase inhibitors and uses thereof” (Vertex Pharmaceuticals Incorporated, priority 2000, dated 2003).
≈ marks a conversion by molar mass, not a printed value.

Columns and labels:
[1] = biological target: DNA gyrase (374 kDa Gyr A2B2 subunit from Staphylococcus aureus) (Staphylococcus aureus, UniProt P0A0K8); assay: Gyrase ATPase Assay; assay type: biochemical; conditions: 10 μM concentration; ATPase assay at 30° C., 0.9 mM ATP; average of duplicate values; read-out: Gyrase Inhibitory Activity (percent inhibition)
Procedure: The ATP hydrolysis activity of DNA gyrase was measure by coupling the production of ADP through pyruvate kinase/lactate dehydrogenase to the oxidation of NADH. This method has been described previously (Tamura and Gellert, 1990, J. Biol. Chem., 265, 21342).
ATPase assays are carried out at 30° C. in buffered solutions containing 100 mM TRIS pH 7.6, 1.5 mM MgCl2, 50 mM KCl. The coupling system contains (final concentrations) 2.5 mM phosphoenol pyruvate, 200 μM nicotinamide adenine dinucleotide (NADH), 1 mM DTT, […], and 10 ug/ml lactate dehydrogenase. 40 nanomolar enzyme (374 kDa Gyr A2B2 subunit from Staphylococcus aureus) and a DMSO solution of the inhibitor to a final concentration of 4% are added and the reaction mixture is allowed to incubate for 10 minutes at 30° C. The reaction is then started by the addition of ATP to a final concentration of 0.9 mM and the rate of NADH disappearance at 340 nanometers is measured over the course of 10 minutes. The percent inhibition values are determined from rate versus concentration profiles and are reported as the average of duplicate values.
The compound numbers correspond to the compound numbers in Table 1. Compounds having an activity designated as “A” provided a percent inhibition value below 50 percent; compounds having an activity designated as “B” provided a percent inhibition value between 50 and 75 percent; and compounds having an activity designated as “C” provided a percent inhibition value greater than 75 percent.

test bacteria = assay: Susceptibility Testing in Liquid Media (MIC assay); assay type: cell-based; conditions: broth dilution, MHB, 35° C. overnight (16 to 20 hr), organism not given; for MIC: read-out: MIC (minimal inhibitory concentration) activity level
Procedure: Susceptibility Testing in Liquid Media
Compounds of this invention were also tested for antimicrobial activity by susceptibility testing in liquid media. Such assays were performed within the guidelines of the latest NCCLS document governing such practices: “M7-A5 Methods for dilution Antimicrobial Susceptibility Tests for Bacteria that Grow Aerobically; Approved Standard—Fifth Edition (2000)”. Other publications such as “Antibiotics in Laboratory Medicine” (Edited by V. Lorian, Publishers Williams and Wilkins, 1996) provide essential practical techniques in laboratory antibiotic testing. Essentially, several discrete bacterial colonies (3 to 7) from a freshly streaked plate were transferred to an appropriate rich broth medium such as MHB, supplemented where appropriate for the more fastidious organisms. This was grown overnight to high density followed by a 1 or 2-thousand-fold dilution to give an inoculation density of between 5×10^5 and 5×10^6 CFU per mL. Alternatively, the freshly picked colonies can be incubated at 37° C. for about 4 to 8 hrs until the culture equals or exceeds a turbidity of a 0.5 McFarland standard (approximately 1.5×10^8 cells per mL) and diluted to give the same CFU per mL as above. In a more convenient method, the inoculum was prepared using a commercially available mechanical device (the BBL PROMPT System) that involves touching five colonies directly with a wand, containing crosshatch grooves at its bottom, followed by suspension of the bacteria in an appropriate volume of saline. Dilution to the appropriate inoculum cell density was made from this cell suspension. The broth used for testing consists of MHB supplemented with 50 mg per L of Ca^2+ and 25 mg per L of Mg^2+. Standard dilution panels of control antibiotics were made and stored as in the NCCLS standard M7-A5, the dilution range typically being in the 128 μg per mL to 0.015 μg per mL (by 2-fold serial dilution). The test compounds were dissolved and diluted fresh for experimentation on the same day; the same or similar ranges of concentration as above being used. The test compounds and controls were dispensed into a multiwell plate and test bacteria added such that the final inoculation was approximately 5×10^4 CFU per well and the final volume was 100 μL. The plates were incubated at 35° C. overnight (16 to 20 hr) and checked by eye for turbidity or quantitated with a multiwell plate reader. […] Such determinations were also compared to the appropriate tables contained in the above two publications to ensure that the range of antibacterial activity is within the acceptable range for this standardized assay.
The compound numbers correspond to the compound numbers in Table 1.

DNA gyrase (374 kDa Gyr A2B2 subunit from Staphylococcus aureus), sequence (P0A0K8 whole entry): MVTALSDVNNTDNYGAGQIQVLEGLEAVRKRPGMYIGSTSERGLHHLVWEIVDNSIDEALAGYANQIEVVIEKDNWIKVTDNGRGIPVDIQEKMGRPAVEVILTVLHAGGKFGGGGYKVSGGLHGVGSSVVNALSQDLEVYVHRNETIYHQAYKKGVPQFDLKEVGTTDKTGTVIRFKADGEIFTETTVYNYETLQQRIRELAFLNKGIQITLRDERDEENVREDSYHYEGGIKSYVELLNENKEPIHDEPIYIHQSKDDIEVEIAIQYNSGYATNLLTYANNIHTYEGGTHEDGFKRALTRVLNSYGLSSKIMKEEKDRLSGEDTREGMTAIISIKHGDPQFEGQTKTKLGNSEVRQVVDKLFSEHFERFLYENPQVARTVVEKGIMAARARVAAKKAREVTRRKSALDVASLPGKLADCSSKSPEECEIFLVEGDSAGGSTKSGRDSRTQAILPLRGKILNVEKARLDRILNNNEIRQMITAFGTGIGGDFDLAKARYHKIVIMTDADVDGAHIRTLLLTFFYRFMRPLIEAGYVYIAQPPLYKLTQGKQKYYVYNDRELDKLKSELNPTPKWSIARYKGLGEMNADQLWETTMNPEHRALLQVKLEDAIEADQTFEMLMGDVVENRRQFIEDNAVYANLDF
DNA gyrase (374 kDa Gyr A2B2 subunit from Staphylococcus aureus), sequence (P20831 whole entry, further chain): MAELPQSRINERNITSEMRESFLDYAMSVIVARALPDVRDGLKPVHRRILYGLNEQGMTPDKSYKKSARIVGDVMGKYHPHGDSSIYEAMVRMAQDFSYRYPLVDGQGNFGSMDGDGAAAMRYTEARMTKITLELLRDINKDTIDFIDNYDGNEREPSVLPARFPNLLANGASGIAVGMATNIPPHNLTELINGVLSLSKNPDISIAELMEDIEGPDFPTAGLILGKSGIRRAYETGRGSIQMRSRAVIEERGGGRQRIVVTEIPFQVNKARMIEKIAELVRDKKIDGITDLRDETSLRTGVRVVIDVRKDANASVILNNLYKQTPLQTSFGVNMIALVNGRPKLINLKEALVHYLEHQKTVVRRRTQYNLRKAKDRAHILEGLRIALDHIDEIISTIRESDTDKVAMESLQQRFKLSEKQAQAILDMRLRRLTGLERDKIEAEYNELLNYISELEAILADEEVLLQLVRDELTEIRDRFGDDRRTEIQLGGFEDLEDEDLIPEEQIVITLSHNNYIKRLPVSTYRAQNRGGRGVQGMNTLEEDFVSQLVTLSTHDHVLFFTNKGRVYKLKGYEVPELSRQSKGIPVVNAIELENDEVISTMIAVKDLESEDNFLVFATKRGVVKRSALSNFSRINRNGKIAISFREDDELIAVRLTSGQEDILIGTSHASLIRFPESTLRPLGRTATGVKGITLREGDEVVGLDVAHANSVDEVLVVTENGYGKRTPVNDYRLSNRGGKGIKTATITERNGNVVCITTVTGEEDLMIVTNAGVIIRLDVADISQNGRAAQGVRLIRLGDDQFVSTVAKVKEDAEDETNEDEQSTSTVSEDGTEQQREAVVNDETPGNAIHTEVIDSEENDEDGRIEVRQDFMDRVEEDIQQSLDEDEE

| SMILES | inhibition at 10 µM [1] [%] | MIC (test bacteria) [µg/mL] | MIC (minimal inhibitory concentration) activity level (test bacteria) |
| --- | --- | --- | --- |
| CCNC(=O)Nc1nc2cc(-n3cnc(C(=O)O)c3)ccc2[nH]1 [Ia-157, 1-[2-(3-Ethyl-ureido)-3H-benzoimidazol-5-yl]-1H-imidazole-4-carboxylic acid] | > 75 | > 40 |  |
| CCNC(=O)Nc1nc2cc(-c3cnc(OC(C)COC)nc3)c(OC)cc2[nH]1 (stereo not drawn) [Ia-140] | > 75 | < 10 |  |
| CCNC(=O)Nc1nc2cc(-n3cc(C(=O)O)cn3)ccc2[nH]1 [Ia-162] | > 75 | > 40 |  |
| CCNC(=O)Nc1nc2cc(-c3cccnc3)c3c(c2[nH]1)OC(F)(F)O3 [Ia-153] | 50 to 75 | > 40 |  |
| CCNC(=O)Nc1nc2cc(-c3cccnc3)c(OC)c(F)c2[nH]1 [Ia-183] | 50 to 75 | > 40 |  |
| CCNC(=O)Nc1nc2cc(-c3cccnc3)c(N3CCCCC3)cc2[nH]1 [Ia-178] | > 75 | < 10 |  |
| CCNC(=O)Nc1nc2cc(-c3ccccc3O)ccc2[nH]1 [Ia-165] | > 75 | 10 to 40 (≈ 33.7 to 135 µM) |  |
| CCNC(=O)Nc1nc2cc(-c3ccc(CNS(C)(=O)=O)cc3)ccc2[nH]1 [Ia-138] | > 75 | > 40 |  |
| CCNC(=O)Nc1nc2cc(-c3ccc(CNC(C)=O)cc3)ccc2[nH]1 [Ia-139] | > 75 | > 40 |  |
| CCNC(=O)Nc1nc2cc(-c3ccc(N4CCCCC4)nc3)ccc2[nH]1 [Ia-175] | > 75 | > 40 |  |
| CCNC(=O)Nc1nc2cc(-c3cccnc3)c(N3CCCC3)cc2[nH]1 [Ia-180] | > 75 | 10 to 40 (≈ 28.5 to 114 µM) |  |
| CCNC(=O)Nc1nc2cc(-c3ccc(N4CCOCC4)nc3)ccc2[nH]1 [Ia-166] | > 75 | > 40 |  |
| CCNC(=O)Nc1nc2cc(-c3ccc(CNC(=O)OC(C)(C)C)nc3)ccc2[nH]1 [Ia-148] | > 75 | 10 to 40 (≈ 24.4 to 97.4 µM) |  |
| CCNC(=O)Nc1nc2cc(-n3cnc(C(=O)N4CCOCC4)c3)ccc2[nH]1 [Ia-170] | > 75 | > 40 |  |
| CCNC(=O)Nc1nc2cc(-c3cccnc3)c(C)cc2[nH]1 [Ia-133] | > 75 | < 10 |  |
| CCNC(=O)Nc1nc2cc(-c3ccc(N4CCC(O)C4)nc3)ccc2[nH]1 (stereo not drawn) [Ia-179] | > 75 | > 40 |  |
| CCNC(=O)Nc1nc2cc(-c3ccc(CNC(C)=O)nc3)ccc2[nH]1 [Ia-145] | > 75 | 10 to 40 (≈ 28.4 to 114 µM) |  |
| CCNC(=O)Nc1nc2cc(-c3cccnc3)c(C)c(C)c2[nH]1 [Ia-142] | > 75 | < 10 |  |
| CCNC(=O)Nc1nc2cc(-c3cnc(NCc4cccnc4)nc3)ccc2[nH]1 [Ia-98] | > 75 | 10 to 40 (≈ 25.7 to 103 µM) |  |
| CCCCNC(=O)c1cn(-c2ccc3[nH]c(NC(=O)NCC)nc3c2)cn1 [Ia-186] | > 75 | < 10 |  |

| SMILES | inhibition at 10 µM [1] [%] | MIC (test bacteria) [µg/mL] | MIC (minimal inhibitory concentration) activity level (test bacteria) |
| --- | --- | --- | --- |
| CCNC(=O)Nc1nc2cc(-c3ccc(N4CCCC4)nc3)ccc2[nH]1 [Ia-177] | > 75 | > 40 |  |
| CCNC(=O)Nc1nc2cc(-n3cc(C(=O)NCC(C)C)cn3)ccc2[nH]1 [Ia-173] | > 75 | 10 to 40 (≈ 27.1 to 108 µM) |  |
| CCNC(=O)Nc1nc2cc(-c3occc(=O)c3O)ccc2[nH]1 [Ia-181] | 50 to 75 | > 40 |  |
| CSc1ncc(-c2ccc3[nH]c(NC(=O)NC4CCCC4)nc3c2)cn1 [Ia-117] | < 50 | > 40 |  |
| CCNC(=O)Nc1nc2cc(-n3cnc(C(=O)NCc4cccnc4)c3)ccc2[nH]1 [Ia-171] | > 75 | 10 to 40 (≈ 24.7 to 98.9 µM) |  |
| CCNC(=O)Nc1nc2cc(-c3cnc(NC(C)COC)nc3)c(OC)cc2[nH]1 (stereo not drawn) [Ia-146] | > 75 | < 10 |  |
| CCNC(=O)Nc1nc2cc(-c3cccnc3)c(OC)c(C)c2[nH]1 [Ia-147] | 50 to 75 | > 40 |  |
| CC(C)NC(=O)Nc1nc2cc(-c3cccnc3)ccc2[nH]1 [Ia-120] | 50 to 75 | > 40 |  |
| CCNC(=O)Nc1nc2cc(-c3cnc(OC)nc3)c(OC)cc2[nH]1 [Ia-112] | > 75 | < 10 |  |
| CCNC(=O)Nc1nc2cc(-n3cc(C(=O)O)c4ncccc43)ccc2[nH]1 [Ia-196] |  | 10 to 40 (≈ 27.4 to 110 µM) |  |
| COC(=O)CCNc1nc2cc(-c3cccnc3)ccc2[nH]1 [Ia-75] | < 50 |  |  |
| CCOC(=O)Nc1nc2cc(-c3cnc(NC(CO)C(=O)O)nc3)ccc2[nH]1 (stereo not drawn) [Ia-94] | > 75 |  |  |
| CCNC(=O)Nc1nc2cc(C(=O)NOC(C)(C)C)ccc2[nH]1 [Ia-46] | < 50 |  |  |
| CCNC(=O)Nc1nc2cc(-c3cnc(NCCCOC)nc3)ccc2[nH]1 [Ia-102] | > 75 |  |  |
| CCCC(=O)Nc1nc2cc(-c3ccccc3)ccc2[nH]1 [Ia-82] | < 50 |  |  |
| CCNC(=O)Nc1nc2cc(-c3cnc(NCc4ccc(OC)cc4)nc3)ccc2[nH]1 [Ia-49] | > 75 |  |  |
| CCNC(=O)Nc1nc2cc(-c3cnc(N4CCCC4)nc3)ccc2[nH]1 [Ia-65] | > 75 |  |  |
| COC(=O)Nc1nc2cc(-c3ccccc3)ccc2[nH]1 [Ia-7] | < 50 |  |  |
| CCOC(=O)Nc1nc2cc(-c3cccnc3)cc(Br)c2[nH]1 [Ia-17] | > 75 |  |  |
| CCOC(=O)Nc1nc2cc(-c3ccc(N(C)C)cc3)ccc2[nH]1 [Ia-12] | 50 to 75 |  |  |

| SMILES | inhibition at 10 µM [1] [%] | MIC (test bacteria) [µg/mL] | MIC (minimal inhibitory concentration) activity level (test bacteria) |
| --- | --- | --- | --- |
| CCNC(=S)Nc1nc2cc(-c3cnc(NCC(=O)O)nc3)ccc2[nH]1 [Ia-39] | > 75 |  |  |
| CCNC(=O)Nc1nc2cc(-c3cccnc3)c(F)cc2[nH]1 [Ia-62] | > 75 |  |  |
| CCNC(=O)Nc1nc2cc(-c3ccccc3)cc(C)c2[nH]1 [Ia-43] | > 75 |  |  |
| CCNC(=O)Nc1nc2cc(-c3cnc(N4CC(C)CC(C)C4)nc3)ccc2[nH]1 (stereo not drawn) [Ia-109] | > 75 |  |  |
| CCNC(=O)Nc1nc2cc(-c3cnc(NCCC4CCCN4C)nc3)ccc2[nH]1 (stereo not drawn) [Ia-106] | > 75 |  |  |
| CCNC(=O)Nc1nc2cc(-c3cccnc3)cc(Cl)c2[nH]1 [Ia-134] | > 75 |  |  |
| CN1CCCC1C(=O)Nc1nc2cc(-c3ccccc3)ccc2[nH]1 (stereo not drawn) [Ia-85] | < 50 |  |  |
| CCOC(=O)Nc1nc2cc(-c3cncnc3)ccc2[nH]1 [Ia-21] | > 75 |  |  |
| CC(C)(C)OCC(Nc1ncc(-c2ccc3[nH]c(NC#N)nc3c2)cn1)C(=O)OC(C)(C)C (stereo not drawn) [Ia-41] | < 50 |  |  |
| CCNC(=O)Nc1nc2cc(-c3cnc(NCc4ccccn4)nc3)ccc2[nH]1 [Ia-48] | > 75 |  |  |
| CCOC(=O)Nc1nc2cc(-c3cccs3)ccc2[nH]1 [Ia-2] | 50 to 75 |  |  |
| CCNC(=O)Nc1nc2cc(-c3cccnc3)cc(O)c2[nH]1 [Ia-169] |  |  | B (provided an MIC of between 10 and 40 μg/mL) |
| CNc1nc2cc(-c3cccnc3)ccc2n1CCN(C)C [Ia-79] | < 50 |  |  |
| CCNC(=O)Nc1nc2cc(-c3cnc(NCCc4ccccn4)nc3)ccc2[nH]1 [Ia-63] | > 75 |  |  |
| CCNC(=O)Nc1nc2cc(-c3ccc(OCCOCC)nc3)ccc2[nH]1 [Ia-197] |  | 10 to 40 (≈ 27.1 to 108 µM) |  |
| CCNC(=O)Nc1nc2nc(N3CCC(N)C3)ccc2[nH]1 (stereo not drawn) [Ia-198] |  | 10 to 40 (≈ 34.6 to 138 µM) |  |
| CCOC(=O)Nc1nc2cc(-c3ccncc3)ccc2[nH]1 [Ia-4] | > 75 |  |  |
| CCNC(=O)Nc1nc2cc(-c3cnc(NCc4ccc5c(c4)OCO5)nc3)ccc2[nH]1 [Ia-128] | > 75 |  |  |
